Data on two compounds can be found in US20080004282A1, “Compositions and methods for modulating gated ion channels” (PainCeptor Pharma Corporation, priority 2006, published 2008).

Structures are written as SMILES. Like-named read-outs stand apart in the source and are kept apart here.

For test [1], the target named is T1, ASIC1a (Homo sapiens, UniProt P78348).
T1 sequence (P78348 1-528): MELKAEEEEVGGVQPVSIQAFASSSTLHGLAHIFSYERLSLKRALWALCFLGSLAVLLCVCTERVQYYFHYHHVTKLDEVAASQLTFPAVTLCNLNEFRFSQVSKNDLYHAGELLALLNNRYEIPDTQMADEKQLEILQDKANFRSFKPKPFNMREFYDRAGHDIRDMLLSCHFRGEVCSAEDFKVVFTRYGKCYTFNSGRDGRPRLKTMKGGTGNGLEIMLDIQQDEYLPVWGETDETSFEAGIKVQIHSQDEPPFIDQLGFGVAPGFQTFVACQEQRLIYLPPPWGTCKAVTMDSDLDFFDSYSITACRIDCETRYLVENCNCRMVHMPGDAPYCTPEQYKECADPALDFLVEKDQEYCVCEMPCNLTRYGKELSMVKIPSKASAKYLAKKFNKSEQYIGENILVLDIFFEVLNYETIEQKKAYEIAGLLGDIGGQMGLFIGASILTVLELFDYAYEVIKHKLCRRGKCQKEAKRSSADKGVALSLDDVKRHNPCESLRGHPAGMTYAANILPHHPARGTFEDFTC
The test can be described thus: Whole cell patch clamp in HEK293 cells transfected with hASIC1a. Also noted: expressed in transfected cells; host or cells: Xenopus laevis oocytes, nuclear microinjection of an expression vector such as pCDNA3. The class given is cell-based. An excerpt: Screening and Bioanalysis of ASIC Antagonists in Heterologous Expression Systems
This example describes another in vitro assessment of the activity of the compounds of the present invention.
Another example of an in vitro assessment method consists of using mammalian heterologous expression systems, which are known to the skilled in the art, and include a variety of mammalian cell lines such as COS, HEK, e.g., HEK293 and/or CHO, cells. Cell lines are transfected with gated ion channel(s) and used to perform electrophysiology as follows:
All experiments are performed at room temperature (20-25° C.) in voltage clamp using conventional whole cell patch clamp methods (Neher, E., et al. (1978) Pfluegers Arch 375:219-228). […]
Coverslips with the cells are transferred to a 15 μl experimental chamber mounted on the stage of an inverted microscope (IMT-2, Olympus) supplied with Nomarski optics. […] The cells are held at a holding voltage of −60 mV and at the start of each experiment the current is continuously measured for 45 s to ensure a stable baseline. […] Current amplitudes are measured at the peak of the responses, and effect of the compounds is calculated as the amplitude at compound equilibrium divided by the amplitude of the current evoked by the pulse just before the compound is included. […]

Test [2] deals with thermal hyperalgesia from carrageenan-induced acute paw inflammation. The experiment in a line: Carrageenan model, thermal hyperalgesia (Hargreaves' assay). It counts as in vivo. Conditions: rat, 20 mg/kg s.c. 30 min prior to carrageenan, 2-3 hours post-carrageenan. On the procedure: Carrageenan Model for Pain
Acute inflammatory hyperalgesia is induced in rats by unilateral injection of […] of a 3% solution of 1-carrageenan into the plantar surface of the left hind paw 2-4 h prior to testing. Thermal nociceptive thresholds are determined according to the method described elsewhere (Hargreaves et al., 1988). Briefly, through the glass surface, a radiant heat source (8 V, 50 W projector bulb) is focused onto the plantar surface of the hind paw. The rat's paw-withdrawal latency to this stimulus is recorded to the nearest 0.1 s. Each latency score is an average of three trials, which are separated by at least 5 min. In all rats, both the injured and uninjured hind paws are similarly tested, allowing direct comparisons between inflamed and non-inflamed paws.
FIG. 7 illustrates the effect of Compound 44 (20 mg/kg s.c.) on the thermal hyperalgesia (observed in the Hargreaves' assay) resulting from an acute paw inflammation caused by the intraplantar injection of 150 μl of a 3% solution of λ-carrageenan. Compound 44 was given 30 min prior to carrageenan injection and thermal hyperalgesia was tested 2, 3, and 4 h post carrageenan injection.

In the case of `CCN1CCc2c(-c3ccccc3)cc(C#N)c(N)c2C1` [Compound 12, 8-Amino-2-ethyl-5-phenyl-1,2,3,4-tetrahydro-isoquinoline-7-carbonitrile], the IC50 in test [1] (HEK293 cells, whole cell patch clamp, six point dose-response, read-out: IC50, inhibition of acid-induced hASIC1a activity) came to 4 µM. On to `CCN1CCc2c(-c3cc(Cl)ccc3OC)cc(C#N)c(N)c2C1` [Compound 44], for which the “effect on thermal hyperalgesia” value in test [2] is recorded as “completely reversed”. The compound further yielded an IC50 in test [1] of 5.1 µM.
